Measurements taken from US5840336A, “Two-phase matrix for sustained release drug delivery device” (Cygnus, Inc., priority 1995, dated 1998).

Columns and labels:
[1] = Solubility of the drug in pH 5.0 phosphate buffer receiver fluid; format: physicochemical
[2] = pH 6
[3] = format: in vivo
Protocol: The effective dose for treating Parkinson's disease is estimated to be in the range of about 1 to 3 μg/kg/hr. Accordingly, for transdermal administration, the target flux of this drug (based on a 20 cm^2 delivery area) is estimated to be in the range of approximately 3-10 μg/cm^2 /hr.

D2 = settings: cited from earlier work

Compound	solubility for the drug [1]	skin flux from liquid formulations [2]	target flux [3]	effective dose for treating Parkinson's disease ([3]; estimated)	selective D2 agonist (D2)
Cc1cccc(CN2CCN(C)C[C@@H](NC(=O)c3n[nH]c4ccccc34)C2)c1.Cl.Cl [(R)-(-)-N-(1-Methyl-4-(3-methylbenzyl)hexahydro-1H-1,4-diazepin-6-yl)-1H-indazole-3-carboxamide dihydrochloride]	reasonable solubility	–	–	–	–
CCCN(CCc1cccs1)[C@H]1CCc2c(O)cccc2C1 [S(-)-2-(N-propyl-N-2-thienylethylamine)-5-hydroxytetralin]	–	at or above the effective range	3-10 μg/cm^2 /hr	1 to 3 µg/kg/h	selective D2 agonist
